Laboratory results published in patent publication US20250093329A1, “SCREENING OF COMPOUNDS” (THE UNIVERSITY OF TULSA, priority 2022, published 2025).

Key:
Assay type in all cases: cell-based
[1] = test system: A549, NCI H196 and MCF10A; assay: Comparison of effectiveness between cell lines (FIG. 27); conditions: 50 μM to 200 μM, L15, one hour CTG
Protocol: FIG. 27 provides a comparison of the effectiveness of the compounds against A549, NCI H196 and MCF10A at concentrations in the range of 50 μM to 200 μM.

[2] = test system: MCF7 and MCF10A; assay: Comparison of cancerous and non-cancerous cells (FIG. 33); conditions: 10 μM to 30 μM
Protocol: FIG. 33 compares the impact of compounds 140-161 on breast cancer cell line MCF7 and non-cancerous […] cells MCF10A. All compounds tested were in the range of 10 μM to 30 μM.

[3] = test system: pancreatic cancer cell line SW-1990; assay: Rapid one hour CellTiter-Glo ATP screening in L15 (FIG. 30); conditions: for effectiveness by POC (FIG. 30): L15 media, one hour CTG, at least one concentration level
Description: [The source words this procedure for another cell line and reports this cell line under the same test.] (§1) When used to identify compounds for specific patients, the following steps will be carried out: • Individualized patient cells will be acquired from a tumor biopsy and cultured/grown in patient blood serum and/or plasma. (In most instances the cells will be obtained using a needle biopsy; i.e. fine needle aspiration biopsy. Optionally, the cells may be obtained from resected tumor (i.e. excisional biopsy, which is an attempt at complete tumor removal), and/or a core biopsy; (i.e. removal of part of the tumor). Alternatively, cells may be obtained from blood draw samples, which would contain leukemia, lymphoma and myeloma cells.) • The cells (as few as 100 cells per experiment) will be screened directly in patient blood serum and/or plasma in the absence or presence of glycolysis inhibitor, 2-deoxyglucose (2DG) using a rapid (1-2 hr) screening assay (CellTiter-Glo, or “CTG”). • NOTE: while the discussion herein focuses on CTG, other assays suitable for measuring changes in ATP levels will perform equally as well. […] DMEM contains glucose, but L15 has substituted glucose with galactose. This means that in DMEM, 2DG is added to inhibit glycolysis; but in L15, the addition of 2DG is unnecessary to achieve the same result as the lack of glucose in L15 precludes access to the metabolic pathway that would utilize glucose. […] The compounds identified with compound numbers 140-161 as depicted in FIGS. 11 and 12 were tested in this manner. NOTE: compound number 141 is Gramicidin, also known as Gramicidin D. This antibiotic is identified by CAS number 1393-88-0. • The rapid screening assay provides evidence of unexpected drug activity for known drugs against cancer cell lines. Thus, the screening of FDA-approved drugs for synergistic activity with metabolic inhibitors can provide anticancer drugs from drugs currently used for other purposes.
(§2) The data presented in FIGS. 16-33 was developed using compounds 140-161 as depicted in FIGS. 11 and 12. […]

[4] = test system: lung cancer cells A549; assay: Rapid one hour CellTiter-Glo ATP screening (FIGS. 16-18, 21-24); conditions: for effectiveness by POC (FIG. 17): 10-30 μM; for effectiveness by POC (FIG. 24): L15 media
Description: as §1
The data presented in FIGS. 16-33 was developed using compounds 140-161 as depicted in FIGS. 11 and 12. The graphs of FIGS. 16-33 provide a direct comparison of the rapid screening method wherein the tests were carried out over one hour (CTG) using Dulbecco's Modified Eagle Medium (DMEM), […] 2DG and L15 media (described below), a cell media that is missing glucose; the equivalent to DMEM plus 2DG. Compounds 140-161 were screened against lung cancer cells designated A549. Similar results are obtained in most cases, but a few examples show significant enhancement of activity in L15. As used in the discussion below, Rot=rotenone, and 2DG+Rot=a positive control (ATP should be inhibited to a high degree).
FIG. 16 provides a comparison of DMEM and L15 media at 50-200 μM. After one hour of exposure and assessment of the ATP values using CellTiter-Glo assay, the “percent of control” (POC) value is determined with respect to the DMSO control. As reflected by FIG. 16, the following compounds, at the indicated concentrations, would be considered effective against the cancer cells of line A549: 140, 142, 149, 150, 155, 156, 159, 160, 161. The same compounds were tested at 10-30 μM with the results depicted in FIG. 17. At these concentrations, the following compounds would be considered effective at least one concentration level: 141, 155, 156, 159, 160.
FIG. 18 provides a comparison of DMEM with 10 mM 2DG with the compounds of interest at concentrations of 50 to 200 μM and 10 to 30 μM to L15 Media with the compounds of interest at concentrations of 50 to 200 μM and 10 to 30 μM. The compounds were tested against the same cancer cell line with one hour of exposure and CTG assay with POC reported against a DMSO control. Under the reported conditions the following compounds would be considered to have effectiveness in treating the cancer cell line at least one concentration level: 140, 141, 149, 155, 156, 159, 160, 161.
FIGS. 21 and 22 provide test data developed using the rapid testing method described above. […]

[5] = Rapid one hour CellTiter-Glo ATP screening in L15 (FIG. 26); conditions: MCF10A; L15 media; one hour CTG; at least one concentration level
[6] = test system: pancreatic cancer cell line CFPAC-1; assay: Rapid one hour CellTiter-Glo ATP screening in L15 (FIG. 31)
Description: [The source words this procedure for another cell line and reports this cell line under the same test.] (§3) When used to identify compounds for specific patients, the following steps will be carried out: • Individualized patient cells will be acquired from a tumor biopsy and cultured/grown in patient blood serum and/or plasma. (In most instances the cells will be obtained using a needle biopsy; i.e. fine needle aspiration biopsy. Optionally, the cells may be obtained from resected tumor (i.e. excisional biopsy, which is an attempt at complete tumor removal), and/or a core biopsy; (i.e. removal of part of the tumor). Alternatively, cells may be obtained from blood draw samples, which would contain leukemia, lymphoma and myeloma cells.) • The cells (as few as 100 cells per experiment) will be screened directly in patient blood serum and/or plasma in the absence or presence of glycolysis inhibitor, 2-deoxyglucose (2DG) using a rapid (1-2 hr) screening assay (CellTiter-Glo, or “CTG”). • NOTE: while the discussion herein focuses on CTG, other assays suitable for measuring changes in ATP levels will perform equally as well. […] DMEM contains glucose, but L15 has substituted glucose with galactose. This means that in DMEM, 2DG is added to inhibit glycolysis; but in L15, the addition of 2DG is unnecessary to achieve the same result as the lack of glucose in L15 precludes access to the metabolic pathway that would utilize glucose. […]

[7] = test system: breast cancer cell line MCF7; assay: Rapid one hour CellTiter-Glo ATP screening in L15 (FIG. 29); conditions: for effectiveness by POC (FIG. 29): L15 media, one hour CTG, at least one concentration level
Description: [The source words this procedure for another cell line and reports this cell line under the same test.] as §1, §2

[8] = test system: ovarian cancer cell line HeLa; assay: Rapid one hour CellTiter-Glo ATP screening in L15 (FIG. 28); conditions: for effectiveness by POC (FIG. 28): L15 media, one hour CTG, at least one concentration level
Description: [The source words this procedure for another cell line and reports this cell line under the same test.] as §1, §2

[9] = test system: lung cancer cell line NCI H196; assay: Rapid one hour CellTiter-Glo ATP screening in L15 (FIG. 25); conditions: L15 media, one hour CTG, at least one concentration level
Description: [The source words this procedure for another cell line and reports this cell line under the same test.] as §3

[10] = DMEM and L15 media, one hour, at least one concentration level
[11] = 1-8 μm, 10-30 μM and 50-200 μM, one hour CTG, at least one concentration level

Row | Compound | subtype specificity (FIG. 27) [1] | impact on cancerous versus non-cancerous cells (FIG. 33) [2] | effectiveness against pancreatic cancer (FIG. 30) ([3]; 145 μM, L15) | effectiveness by POC (FIG. 30) [3] | effectiveness (FIG. 23) ([4]; 145 μM in L15) | effectiveness by POC (FIG. 17) [4, 10] | effectiveness by POC (FIG. 16) ([4]; DMEM and L15 media, 50-200 μM, one hour, CellTiter-Glo, DMSO control) | effectiveness by POC when combined with 2DG (FIG. 22) ([4]; DMEM with 10 mM 2DG, 1-8 μm, 10-30 μM and 50-200 μM, one hour CTG, at least one concentration level) | effectiveness by POC (FIG. 24) [4, 11] | effectiveness by POC (FIG. 26) [5] | effectiveness against pancreatic cancer (FIG. 31) ([6]; 145 μM, L15) | effectiveness by POC (FIG. 31) ([6]; L15 media, one hour CTG, at least one concentration level) | effectiveness against breast cancer (FIG. 29) ([7]; 145 μM, L15) | effectiveness by POC (FIG. 29) [7] | effectiveness against ovarian cancer (FIG. 28) ([8]; 145 μM, L15) | effectiveness by POC (FIG. 28) [8] | effectiveness by POC (FIG. 25) [9]
1 | CN(C)CCCOc1nn(Cc2ccccc2)c2ccccc12 [Compound 156, benzydamine] | subtype specificity | significantly more impact on the cancerous cells | effective | likely effective | unexpected effectiveness | effective | effective | effective | likely to be effective | likely effective | effective | likely effective | effective | likely effective | effective | likely effective | –
2 | Gramicidin [Compound 141] | subtype specificity | – | – | likely effective | – | effective | – | – | likely to be effective | likely effective | – | – | – | likely effective | – | likely effective | likely effective
